From patent US9334487B2, “Methods for diagnosing rheumatoid arthritis” (Imperial Innovations Limited, priority 2007, dated 2016)
“Also recorded” adds a separate entry of the source. Bridges are numbered along the chain shown (N, C = ends). Where no end group is shown, it is not given here. [ ]: non-standard residue; d: D form. Cit = NC(=O)NCCC[C@H](N)C(=O)O

Legend:
[1] = tested on: serum IgG of RA patients, disease controls and healthy controls; test: ELISA for IgG antibodies to cyclic α-enolase peptides, UK cohort sera; format: binding, human; settings: for % positive, RA (n = 102): UK cohort RA sera; for % positive, RA (n = 102) / % positive, Disease controls (n = 110) / % positive, Healthy controls (n = 92): cut-off OD450 = 0.1; for % positive, Disease controls (n = 110) / % positive, Healthy controls (n = 92) / sensitivity for RA: UK cohort; for IgG antibody levels / reactivity (OD450) in RA sera / sensitivity for RA: 102 RA patients; for IgG antibody levels / reactivity (OD450) in RA sera: OD450 (peptide)-OD450 (background)
From the text: (§1) Serum samples were obtained with informed consent and ethical approval from 102 patients with RA and 92 (or 110 patients for the results generally shown in FIGS. 9 to 16) patients with other arthritidies (including systemic lupus erythematosus (n=32), Sjogrens syndrome (n=31), psoriatic arthritis (n=5), Behçet's syndrome (n=18; FIGS. 9 to 16) and miscellaneous other rheumatic diseases (n=24). 92 control serum samples were obtained from healthy volunteers. An additional cohort of 24 patients with RA undergoing treatment with either methotrexate (MTX) alone (n=13) or methotrexate in combination with Infliximab (INF) (n=11) were collected before treatment as well as 6, 18 and 52 weeks post treatment. Disease activity score (DAS 28), erythrocyte sedimentation rate (ESR) and C-reactive protein (CRP) were measured for each patient at the same time points, i.e. 0, 6, 18 an 52 weeks post treatment. All patients attended the Rheumatology Clinic at Charing Cross Hospital, London. An independent cohort from the US included serum samples from 81 RA patients, taken at baseline in a clinical trial at the Omaha Veterans Affairs Medical Centre, University of Nebraska, USA, and 82 serum samples from healthy volunteers. All RA patients met the American College of Rheumatology (ACR) classification criteria (43).
Fifteen cyclic 15 to 23-mer peptides were synthesised at Cambridge Research Biochemicals (Cleveland, UK). The peptide sequences corresponded to amino acid sequences in human α-enolase (SwissProt accession number P06733) or P. gingivalis enolase (SwissProt accession number AAQ66821), with the addition of cysteine residues at the amino- and carboxy-termini and the exchange of citrulline for arginine residues at certain positions, as shown in Tablet and Table 2 below.
(§2) 96-well plates (Maxisorp; Nunc, Roskilde, Denmark) were coated with α-enolase peptides at 10 μg/ml (diluted in a 50 mM carbonate buffer, pH 9.6), or with carbonate buffer alone, and incubated over night at 4° C. Wells were washed with PBS-Tween (0.05%) and blocked with 2% BSA (diluted in PBS) for 3 hours at room temperature. Sera were diluted 1:50 in RIA-buffer (10 mM Tris, 1% BSA, 350 mM NaCl, 1% Triton-X, 0.5% Na-deoxychlate, 0.1% SDS) supplemented with 10% FCS, added in duplicates and incubated for 1.5 hour at room temperature. Plates were washed as described above and incubated with peroxidase-conjugated mouse anti-human IgG (Hybridoma Reagent Laboratory, Baltimore, USA) (diluted 1:1000 in RIA-buffer, 10% FCS) for 1 hour at room temperature. After a final wash (PBS-Tween, 0.05%), bound antibodies were detected with TMB substrate (KPL, Maryland, USA). The reaction was stopped by the addition of 1M H2SO4 and absorbance measured at 450 nm in a Multiscan Ascent microplate reader (Thermo Labsystems). A control serum was included on all plates to correct for plate-to-plate variation. Background OD450 (wells coated with only carbonate buffer) was subtracted from peptide OD450 for every serum tested. Values above 0.1 were taken as positive. ELISA on the US serum samples were performed in a similar manner, but with 2% BSA in carbonate buffer as background, and with an OD cut-off of 0.2 for positive samples. Anti-CCP antibody status was analysed using the CCP2 kit (Eurodiagnostica, Malmo, Sweden), according to the manufacturer's instructions.

[2] = tested on: anti-CEP-1 antibodies in anti-CEP-1 positive RA sera; test: Liquid phase inhibition of binding to CEP-1-coated plates; design: species or system human; settings: six anti-CEP-1 positive RA sera pre-incubated with 0, 1, 10 and 100 μg/ml peptide
Method: Inhibition experiments were performed in liquid phase on six anti-CEP-1 positive RA serum samples or on solid phase using serum from nine double positive (anti-CEP-1 and CCP positive) RA patients. Sera were either pre-incubated for 2 hours in RIA-buffer containing increasing concentrations (0, 1, 10 and 100 μg/ml) of CEP-1, control peptide 1D, peptide 4, peptide 7, peptide 9 or peptide 11, or pre-absorbed on plates coated with CEP-1, carbonate buffer alone or pre-absorbed on commercial CCP2 plates. To eliminate antigen-antibody complexes, the liquid phase mixtures were centrifuged at 13 000 rpm, for 15 minutes, before the supernatants were transferred to CEP-1-coated plates and assessed as described above Inhibition of binding to CEP-1, for serum samples pre-absorbed to CCP, was calculated in relation to the maximum inhibition, which by definition was set to 100% for samples pre-incubated with CEP-1.

[3] = tested on: serum IgG of RA patients and healthy controls (US cohort); test: anti-CEP-1 antibody ELISA, independent US cohort; format: binding, human; settings: cut-off 98th percentile of controls
From the text: as §1
as §2, with “ELISA on the US serum samples were performed in a similar manner, but with 2% BSA in carbonate buffer as background, and with an OD cut-off of 0.2 for positive samples.” left out, “instructions. […]” for “instructions.”

Row | Substance | % positive, RA (n = 102) [1] [%] | % positive, Disease controls (n = 110) [1] [%] | % positive, Healthy controls (n = 92) [1] [%] | inhibition of antibody binding to CEP-1-coated plates [2] | other results
1 | cakynqll-X-ieeelgskac (CAKYNQLL[Cit]IEEELGSKAC; disulfide 1-19 (inferred); listed as Homo sapiens) [Peptide 8, human α-enolase aa 405-421] | 7 | 4 | 0 | – | –
2 | cekgvply-X-hiadlagnsec (CEKGVPLY[Cit]HIADLAGNSEC; disulfide 1-20 (inferred); listed as Homo sapiens) [Peptide 4, human α-enolase aa 125-142] | 16 | 2 | 2 | no inhibition | inhibition of antibody binding to CEP-1-coated plates ([2]; listed as peptide 4): did not result in decreased antibody binding
3 | ciqvvgddltvtnpk-X-iakac (CIQVVGDDLTVTNPK[Cit]IAKAC; disulfide 1-21 (inferred); listed as Homo sapiens) [Peptide 10, human α-enolase aa 313-331] | 6 | – | 1 | – | –
4 | ckfag-X-nf-X-nplakc (CKFAG[Cit]NF[Cit]NPLAKC; disulfide 1-15 (inferred); listed as Homo sapiens) [Peptide 9, human α-enolase aa 422-434] | 15 | 1 | 1 | no inhibition | inhibition of antibody binding to CEP-1-coated plates ([2]; listed as peptide 9): did not result in decreased antibody binding
5 | ckiha-R-eifds-R-gnptvec (CKIHAREIFDSRGNPTVEC; listed as Homo sapiens) [Peptide 1D, arginine containing control peptide, aa 5-21] | – | 2 | 3 | did not result in decreased antibody binding; also recorded: no inhibition | IgG antibody levels / reactivity (OD450) in RA sera [1]: low IgG-levels; also recorded: low reactivity; IgG antibody levels / reactivity (OD450) in RA sera ([1]; listed as arginine-containing control peptide): low degree of reactivity; IgG antibody levels / reactivity (OD450) in RA sera ([1]; listed as peptide 1D): low IgG-levels; sensitivity for RA [1]: about 4.9%
6 | ckiha-R-eifds-X-gnptvec (CKIHAREIFDS[Cit]GNPTVEC; disulfide 1-19 (inferred); listed as Homo sapiens) [Peptide 1B] | 40 | – | – | – | IgG antibody levels / reactivity (OD450) in RA sera [1]: higher antibody levels; sensitivity for RA [1]: higher sensitivity
7 | ckiha-X-eifds-R-gnptvec (CKIHA[Cit]EIFDSRGNPTVEC; disulfide 1-19 (inferred); listed as Homo sapiens) [Peptide 1C] | 20 | – | – | – | sensitivity for RA [1]: about 20%
8 | ckiig-X-eilds-X-gnptvec (CKIIG[Cit]EILDS[Cit]GNPTVEC; disulfide 1-19 (inferred); listed as Homo sapiens) [1A P. gingivalis, P. gingivalis enolase version of CEP-1, X = citrulline] | 34 | – | – | – | % healthy controls positive, US cohort (n=82) [3]: 2%
9 | cnf-X-eam-X-igaevyhnlknc (CNF[Cit]EAM[Cit]IGAEVYHNLKNC; disulfide 1-20 (inferred); listed as Homo sapiens) [Peptide 5, human α-enolase aa 177-194] | 11 | 4 | 3 | – | –
10 | cnpk-X-iakavnekscncllc (CNPK[Cit]IAKAVNEKSCNCLLC; also: cyclic via terminal Cys, bond and pairing not given here; listed as Homo sapiens) [Peptide 11, human α-enolase aa 324-341] | 18 | – | 0 | no inhibition | inhibition of antibody binding to CEP-1-coated plates ([2]; listed as peptide 11): did not result in decreased antibody binding
11 | cvdlftskglf-X-aavpsgc (CVDLFTSKGLF[Cit]AAVPSGC; disulfide 1-19 (inferred); listed as Homo sapiens) [Peptide 2, human α-enolase aa 22-38] | 10 | 0 | 2 | – | –
12 | cyealel-X-dndkt-X-ymgkgvskc (CYEALEL[Cit]DNDKT[Cit]YMGKGVSKC; disulfide 1-23 (inferred); listed as Homo sapiens) [Peptide 3, human α-enolase aa 44-64] | 15 | 2 | 0 | – | –
